Laboratory results as given in the supplement of paper PMC10307832.

Experiments:
Assay in all cases: relative viability (nuclei count vs DMSO), 5 days (fraction); higher = more cells survive
NCI-H1915 = system: NCI-H1915
In short: (§1)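 The day after seeding in 1536-well plates, lung cancer cell lines were treated by pin tool with a single drug, or with a fixed anchor-drug dose together with five library-drug doses (not always all listed) in √10 steps. After 5 days, a combined fix-and-stain solution (final 0.05% Triton X-100, 1% formaldehyde, 1 ug/ml Hoechst) was added. Nuclei counted on 4× images gave relative viability as treated counts over vehicle counts, reported as the median of duplicate plates.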

NCI-H661 = system: NCI-H661
In short: as §1

NCI-H596 = system: NCI-H596
In short: as §1

NCI-H727 = system: NCI-H727
In short: as §1

LXF-289 = system: LXF-289
In short: as §1

NCI-H3122 = system: NCI-H3122
In short: as §1

NCI-H1792 = system: NCI-H1792
In short: as §1

LCLC-103H = system: LCLC-103H
In short: as §1

PC-14 = system: PC-14
In short: as §1

NCI-H1651 = system: NCI-H1651
In short: as §1

NCI-H441 = system: NCI-H441
In short: as §1

NCI-H520 = system: NCI-H520
In short: as §1

NCI-H1355 = system: NCI-H1355
In short: as §1

NCI-H322M = system: NCI-H322M
In short: as §1

NCI-H460 = system: NCI-H460
In short: as §1

NCI-H1563 = system: NCI-H1563
In short: as §1

NCI-H2347 = system: NCI-H2347
In short: as §1

RERF-LC-KJ = system: RERF-LC-KJ
In short: as §1

NCI-H1755 = system: NCI-H1755
In short: as §1

Compound `Nc1ccn([C@@H]2O[C@H](CO)[C@@H](O)[C@@H]2O)c(=O)n1` [Cytarabine] + CC(C)C[C@H](NC(=O)[C@H](Cc1ccccc1)NC(=O)c1cnccn1)B(O)O [Bortezomib] (partner 0.002 µM) has a relative viability (NCI-H1915; first compound 0.005 µM) of 0.74, a relative viability (NCI-H1915; first compound 0.01581 µM) of 0.952 and a relative viability (NCI-H1915; first compound 0.05 µM) of 0.8. For the same compound, the relative viability (NCI-H1915; first compound 0.1581 µM) was 0.385, the relative viability (NCI-H1915; first compound 0.5 µM) was 0.25 and the relative viability (NCI-H661; first compound 0.005 µM) was 0.997. The relative viability (NCI-H661; first compound 0.01581 µM) was 0.667, the relative viability (NCI-H661; first compound 0.05 µM) was 0.596 and the relative viability (NCI-H661; first compound 0.1581 µM) was 0.381. The relative viability (NCI-H661; first compound 0.5 µM) was 0.246, the relative viability (NCI-H596; first compound 0.005 µM) was 0.788 and the relative viability (NCI-H596; first compound 0.01581 µM) was 0.853. For the same compound, the relative viability (NCI-H596; first compound 0.05 µM) was 0.904, the relative viability (NCI-H596; first compound 0.1581 µM) was 0.62 and the relative viability (NCI-H596; first compound 0.5 µM) was 0.704. The relative viability (NCI-H727; first compound 0.005 µM) was 0.524, the relative viability (NCI-H727; first compound 0.01581 µM) was 0.558 and the relative viability (NCI-H727; first compound 0.05 µM) was 0.484. For the same compound, the relative viability (NCI-H727; first compound 0.1581 µM) was 0.334, the relative viability (NCI-H727; first compound 0.5 µM) was 0.315 and the relative viability (LXF-289; first compound 0.005 µM) was 0.887. It also gave a relative viability (LXF-289; first compound 0.01581 µM) of 0.936, a relative viability (LXF-289; first compound 0.05 µM) of 0.901 and a relative viability (LXF-289; first compound 0.1581 µM) of 0.474. It also gave a relative viability (LXF-289; first compound 0.5 µM) of 0.258, a relative viability (NCI-H3122; first compound 0.005 µM) of 0.932 and a relative viability (NCI-H3122; first compound 0.01581 µM) of 0.96. For the same compound, the relative viability (NCI-H3122; first compound 0.05 µM) was 0.856, the relative viability (NCI-H3122; first compound 0.1581 µM) was 0.676 and the relative viability (NCI-H3122; first compound 0.5 µM) was 0.614. The relative viability (NCI-H1792; first compound 0.005 µM) was 0.925, the relative viability (NCI-H1792; first compound 0.01581 µM) was 0.93 and the relative viability (NCI-H1792; first compound 0.05 µM) was 0.795. It also gave a relative viability (NCI-H1792; first compound 0.1581 µM) of 0.565, a relative viability (NCI-H1792; first compound 0.5 µM) of 0.55 and a relative viability (LCLC-103H; first compound 0.005 µM) of 0.977. For the same compound, the relative viability (LCLC-103H; first compound 0.01581 µM) was 1.17, the relative viability (LCLC-103H; first compound 0.05 µM) was 0.958 and the relative viability (LCLC-103H; first compound 0.1581 µM) was 1.04. The relative viability (LCLC-103H; first compound 0.5 µM) was 0.966, the relative viability (PC-14; first compound 0.005 µM) was 0.872 and the relative viability (PC-14; first compound 0.01581 µM) was 0.88. The relative viability (PC-14; first compound 0.05 µM) was 0.641, the relative viability (PC-14; first compound 0.1581 µM) was 0.326 and the relative viability (PC-14; first compound 0.5 µM) was 0.268. For the same compound, the relative viability (NCI-H1651; first compound 0.005 µM) was 1.09, the relative viability (NCI-H1651; first compound 0.01581 µM) was 0.916 and the relative viability (NCI-H1651; first compound 0.05 µM) was 0.808. It also gave a relative viability (NCI-H1651; first compound 0.1581 µM) of 0.7, a relative viability (NCI-H1651; first compound 0.5 µM) of 0.663 and a relative viability (NCI-H441; first compound 0.005 µM) of 0.612. For the same compound, the relative viability (NCI-H441; first compound 0.01581 µM) was 0.376, the relative viability (NCI-H441; first compound 0.05 µM) was 0.483 and the relative viability (NCI-H441; first compound 0.1581 µM) was 0.283. The relative viability (NCI-H441; first compound 0.5 µM) was 0.162, the relative viability (NCI-H520; first compound 0.005 µM) was 0.412 and the relative viability (NCI-H520; first compound 0.01581 µM) was 0.363. For the same compound, the relative viability (NCI-H520; first compound 0.05 µM) was 0.697, the relative viability (NCI-H520; first compound 0.1581 µM) was 0.468 and the relative viability (NCI-H520; first compound 0.5 µM) was 0.34. It also gave a relative viability (NCI-H1355; first compound 0.005 µM) of 1.02, a relative viability (NCI-H1355; first compound 0.01581 µM) of 1.18 and a relative viability (NCI-H1355; first compound 0.05 µM) of 0.927. The relative viability (NCI-H1355; first compound 0.1581 µM) was 0.644, the relative viability (NCI-H1355; first compound 0.5 µM) was 0.389 and the relative viability (NCI-H322M; first compound 0.005 µM) was 0.718. It also gave a relative viability (NCI-H322M; first compound 0.01581 µM) of 1.01, a relative viability (NCI-H322M; first compound 0.05 µM) of 0.717 and a relative viability (NCI-H322M; first compound 0.1581 µM) of 0.472. For the same compound, the relative viability (NCI-H322M; first compound 0.5 µM) was 0.404, the relative viability (NCI-H460; first compound 0.005 µM) was 0.677 and the relative viability (NCI-H460; first compound 0.01581 µM) was 0.968. The relative viability (NCI-H460; first compound 0.05 µM) was 0.265, the relative viability (NCI-H460; first compound 0.1581 µM) was 0.028 and the relative viability (NCI-H460; first compound 0.5 µM) was 0.0192. For the same compound, the relative viability (NCI-H1563; first compound 0.005 µM) was 0.878, the relative viability (NCI-H1563; first compound 0.01581 µM) was 0.928 and the relative viability (NCI-H1563; first compound 0.05 µM) was 0.779. For the same compound, the relative viability (NCI-H1563; first compound 0.1581 µM) was 0.835, the relative viability (NCI-H1563; first compound 0.5 µM) was 0.592 and the relative viability (NCI-H2347; first compound 0.005 µM) was 1.22. It also gave a relative viability (NCI-H2347; first compound 0.01581 µM) of 0.951, a relative viability (NCI-H2347; first compound 0.05 µM) of 0.546 and a relative viability (NCI-H2347; first compound 0.1581 µM) of 0.61. The relative viability (NCI-H2347; first compound 0.5 µM) was 0.667, the relative viability (RERF-LC-KJ; first compound 0.005 µM) was 1.01 and the relative viability (RERF-LC-KJ; first compound 0.01581 µM) was 0.91. The relative viability (RERF-LC-KJ; first compound 0.05 µM) was 0.974, the relative viability (RERF-LC-KJ; first compound 0.1581 µM) was 0.68 and the relative viability (RERF-LC-KJ; first compound 0.5 µM) was 0.472. It also gave a relative viability (NCI-H1755; first compound 0.005 µM) of 0.922, a relative viability (NCI-H1755; first compound 0.01581 µM) of 0.88 and a relative viability (NCI-H1755; first compound 0.05 µM) of 0.663. For the same compound, the relative viability (NCI-H1755; first compound 0.1581 µM) was 0.282 and the relative viability (NCI-H1755; first compound 0.5 µM) was 0.294.
